The values that follow come from PubChem BioAssay (NCI).

Experiment in all cases: NCI tumour cell line growth inhibition, 48 h
The subject of assay [1] is ACHN renal.
Assay [2] has as its system DU-145 prostate.
Assay [3] relates to HOP-62 NSCLC.
In assay [4] the test system is HOP-92 NSCLC.
Assay [5] has as its system HT29 colon.
In assay [6] the test system is K-562 leukemia.
The test system of assay [7] is KM12 colon.
The subject of assay [8] is MALME-3M melanoma.
In assay [9] the test system is PC-3 prostate.
Assay [10] concerns RXF 393 renal.
In assay [11] the test system is SK-MEL-2 melanoma.
The subject of assay [12] is SK-OV-3 ovarian.
Assay [13] has as its system SN12C renal.
Assay [14] has as its system SNB-19 CNS.
Assay [15] relates to SNB-75 CNS.
For assay [16], the system named is U251 CNS.
Assay [17] deals with UACC-257 melanoma.
The test system of assay [18] is RPMI-8226 leukemia.

SMILES strings stand for the structures.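 96-well plates; 48 h exposure; 5 concentrations. Endpoints by linear interpolation between flanking doses. Not reached: highest tested concentration assigned. TGI: total growth inhibition.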

With `Cc1cc(C)c(S(=O)(=O)N2CCCN(S(=O)(=O)c3c(C)cc(C)cc3C)OCCCO2)c(C)c1`, the TGI in assay [1], in assay [2], in assay [3], in [4], in assay [5] and in assay [6] was over 100 µM in each case. In addition, the TGI in [7], in [8], in assay [9], in assay [10], in [11] and in assay [12] was over 100 µM each time. For the same molecule, the TGI in [13], in assay [14], in [15], in assay [16] and in [17] was over 100 µM each time.

Regarding `Nc1nc(Cl)c(/C=N\O)c(NCC2(CO)CCC2)n1`, the TGI in assay [1], in assay [2], in assay [3], in assay [4], in assay [5] and in assay [6] was over 100 µM each time. Besides, the TGI in assay [7] is 18.3 µM; in assay [8] it was over 100 µM; in assay [9], over 100 µM; in [18], over 100 µM; in [10], over 100 µM; in assay [13] it was over 100 µM. In addition, the TGI in assay [14], in assay [15], in [16] and in assay [17] was over 100 µM each time.

`Cc1c(CCN2CCOCC2)c(N2CCOCC2)n2c(nc3ccccc32)c1C#N`: the TGI in [1], in [2], in assay [3], in assay [4], in assay [5] and in [6] was over 10 µM in each case. The TGI in assay [7], in [8], in assay [9], in assay [18], in assay [10] and in [12] was over 10 µM throughout. Also, the TGI in [13], in assay [14], in assay [15], in assay [16] and in [17] was over 10 µM each time.

As to `O=S(=O)(c1ccccc1)C(c1ccc2ccccc2n1)S(=O)(=O)c1ccccc1`, the TGI in assay [1], in [2], in assay [3], in [4], in assay [5] and in [6] was over 100 µM each time. Further, the TGI in assay [7], in assay [8], in assay [9], in assay [18], in assay [10] and in assay [13] was over 100 µM throughout. For the same molecule, the TGI in assay [14], in [15], in assay [16] and in [17] was over 100 µM each time.

`CN1C/C(=C\c2cccs2)C2=NN(C)C(c3cccs3)C2C1` (stereo not drawn): the TGI in assay [1], in [2], in [3], in assay [4], in assay [5] and in assay [6] was over 100 µM throughout. The TGI was over 100 µM in assay [7]; over 100 µM in [8]; over 100 µM in assay [9]; 95.3 µM in [18]; over 100 µM in assay [10]; 81.2 µM in assay [11]. Besides, the TGI in assay [12], in assay [13], in [14], in assay [16] and in [17] was over 100 µM each time.

For `CC(NO)/C(=N/O)c1ccco1` (stereo not drawn), the TGI in [1], in assay [2], in assay [3], in assay [4], in assay [5] and in assay [6] was over 10 µM each time. Besides, the TGI in [7], in assay [8], in assay [9], in assay [18], in assay [10] and in [11] was over 10 µM in each case. Also, the TGI in [13], in assay [14], in assay [16] and in assay [17] was over 10 µM in each case.

With `CN(C)CCCn1c(Cc2ccc(Cl)cc2)nc2cc(C(F)(F)F)ccc21`, the TGI in assay [1] is 26 µM; in [2] it was 27.2 µM; in assay [3], 28.8 µM; in [4] it was 22.9 µM; in [5] it was 29.8 µM; in [6], over 32.5 µM. Further, the TGI in [7] is 28.1 µM; in [8], 24 µM; in [9], 29 µM; in [18] it was over 100 µM; in [10] it was 22.7 µM; in [11], 31 µM. Further, the TGI in [12] stood at 28.2 µM; in assay [13], 29.4 µM; in assay [14] it was 30.8 µM; in assay [16] it was 28.6 µM; in assay [17], 30.1 µM.

Regarding `O=C1c2ccccc2C(=O)N1CC1S(=O)(=O)OCCOS1(=O)=O`, the TGI in [1], in assay [2], in assay [3], in [4], in [5] and in assay [6] was over 100 µM in each case. Also, the TGI in assay [8], in [9], in [18], in assay [10], in assay [12] and in assay [13] was over 100 µM each time. For the same molecule, the TGI in assay [14], in assay [15], in assay [16] and in [17] was over 100 µM each time.

As to `CCCSc1ccc2[nH]c(/N=C/c3ccccc3)cc2c1`, the TGI in [1] was over 100 µM; in assay [2], over 100 µM; in assay [4], 76.9 µM; in assay [5], over 100 µM; in assay [6] it was 38.8 µM; in assay [8], 55.7 µM. In addition, the TGI was over 100 µM in [9]; 48.3 µM in assay [18]; 42.7 µM in [10]; 32.2 µM in [11]; 45.7 µM in [13]; over 100 µM in assay [15]. Also, in assay [17], the TGI is 57 µM.

Turning to `CCO/C=N\c1c(C#N)c(-c2ccc(Cl)cc2)cn1-c1ccc(C)cc1`, the TGI in assay [1], in assay [2], in assay [3], in assay [4], in assay [5] and in [6] was over 100 µM each time. Moreover, the TGI in assay [8], in [9], in [10], in [11], in assay [12] and in assay [13] was over 100 µM each time. The TGI in [14], in [15], in assay [16] and in [17] was over 100 µM in each case.

As to `CO[C@@H]1C[C@H]2[C@@H]3CC[C@H]([C@@H](C)CO)[C@@]3(C)CC[C@@H]2[C@@]2(C)CC[C@H]3C[C@]312`, the TGI is 66.4 µM in assay [1]; over 100 µM in assay [2]; over 100 µM in assay [3]; 58.5 µM in [4]; 36.2 µM in assay [5]; 60.5 µM in [6]. The TGI was 36.6 µM in [7]; 41.2 µM in assay [8]; 57.3 µM in [9]; 89.6 µM in [18]; 45.6 µM in [10]; 77.1 µM in assay [13]. For the same molecule, the TGI in assay [14] was over 100 µM; in [15], over 100 µM; in [16], 27.7 µM; in assay [17], 71.9 µM.

`COc1ccc(/C=C2\CN(C)C/C(=C\c3ccc(OC)cc3)C2=O)cc1`: the TGI in [1], in [2], in assay [3], in [4], in [5] and in assay [6] was over 100 µM each time. For the same molecule, the TGI in assay [7], in assay [8], in assay [9], in assay [18], in assay [10] and in [11] was over 100 µM each time. Moreover, the TGI in assay [13], in assay [14], in assay [15] and in assay [16] was over 100 µM in each case.

For `O=c1c2cc(-c3ccccc3)sc2nc2n1N=C(c1ccc(Cl)cc1)CS2`, the TGI in assay [1], in [2], in assay [3], in assay [4], in assay [5] and in assay [6] was over 100 µM throughout. Further, the TGI in [7], in assay [8], in assay [9], in [18], in assay [10] and in assay [12] was over 100 µM throughout. In addition, the TGI in [13], in assay [15], in [16] and in assay [17] was over 100 µM throughout.

For `COc1ccc(S(=O)(=O)NC(CCC(=O)NN)C(=O)NN)cc1` (stereo not drawn), the TGI in assay [1], in [2], in assay [3], in [4], in [5] and in [6] was over 100 µM in each case. For the same molecule, the TGI in [7], in assay [8], in assay [9], in [18], in assay [11] and in assay [12] was over 100 µM each time. Moreover, the TGI in assay [13], in [14], in [15], in assay [16] and in [17] was over 100 µM throughout.

In the case of `CCN(CC)CCC(=O)c1ccc(C)cc1`, the TGI in assay [1] was 41 µM; in assay [2], over 100 µM; in assay [3], over 100 µM; in assay [4] it was 36 µM; in [5], 49.6 µM; in [6] it was 52.3 µM. Further, the TGI in assay [8] was 42.4 µM; in [9], over 100 µM; in assay [10], 31.1 µM; in assay [12], over 100 µM; in [13], over 100 µM; in [14], over 100 µM. The TGI is over 100 µM in [15], over 100 µM in assay [16] and 38.9 µM in assay [17].

On to `COc1cc2nc(-c3cccs3)nc(N3CCN(c4ccccc4C(F)(F)F)CC3)c2cc1OC`, for which the TGI in assay [1], in assay [2], in [3], in assay [4], in [5] and in [6] was over 100 µM each time. Besides, the TGI in assay [7], in assay [8], in assay [9], in [18], in assay [11] and in assay [12] was over 100 µM each time. In addition, the TGI in assay [13], in [14], in [15], in [16] and in [17] was over 100 µM throughout.

In the case of `C/C(=N\n1c(Cc2ccccc2)n[nH]c1=O)c1ccccc1`, the TGI in [1], in [2], in assay [4], in assay [5], in assay [6] and in [7] was over 100 µM in each case. Besides, the TGI in assay [8], in assay [9], in [18], in assay [10], in [11] and in [13] was over 100 µM throughout. The TGI in assay [14], in assay [16] and in assay [17] was over 100 µM throughout.
